According to patent US9012497B2, “Cyclohexyl carbamate compounds as active anti-cellulite ingredients” (Symrise AG, priority 2010, dated 2015):

Tests used:
3T3-L1 cells [1] = experiment: Lipolysis assay, in vitro on 3T3-L1 cells, free glycerol release; type: cell-based; settings: Mus musculus; differentiated 3T3-L1 cells, about 20 hours of incubation; mean values from at least 2 independent tests; read-out: Stimulation of lipolysis EC50
Experimental: 3T3-L1 cells (mouse embryonic fibroblast-like adipocyte cell line) are seeded in a 48-well plate with collagen I-coating in a concentration of 3×10^4 cells/well. The cultivation and differentiation of the cells takes place analogously to the details in Example 2 (adipogenesis assay).
Various concentrations of the test substances are applied to the cells in DMEM, with bovine serum albumen added. After about 20 hours of incubation, the quantification of free glycerol in the supernatant of the cells takes place, which is released by the cells after hydrolysis of triglycerides in the cells and is a measure of the lipolysis of the cells. The quantification of the free glycerol is carried out based on an enzymatic method with a free glycerol reagent.
(§1) The stimulation of the lipolysis in the presence of test substances is calculated according to the following equation:
[formula] wherein A test substance=absorption of the wells with test substance and with cells A test substance without cells=absorption of the wells with test substance without cells (absorption control) A control=absorption of the wells without test substance, but with cells A control without cells=absorption of the wells without test substance and without cells
The EC50 is calculated from the lipolysis stimulation [%] in a series of dilutions of tested samples. This is the concentration at which the lipolysis is 50% stimulated.

lipoprotein lipase (LPL) = target: T1, lipoprotein lipase (LPL) (Mus musculus, UniProt P11152); experiment: Inhibition of LPL (lipogenesis assay), MUF oleate hydrolysis; type: biochemical; settings: LPL obtained from differentiated 3T3-L1 cells; mean values of at least 2 independent tests
T1 construct: endogenous in cells; host or cells: differentiated 3T3-L1 cells (mouse); heparin-released supernatant
T1 sequence (P11152 28-474): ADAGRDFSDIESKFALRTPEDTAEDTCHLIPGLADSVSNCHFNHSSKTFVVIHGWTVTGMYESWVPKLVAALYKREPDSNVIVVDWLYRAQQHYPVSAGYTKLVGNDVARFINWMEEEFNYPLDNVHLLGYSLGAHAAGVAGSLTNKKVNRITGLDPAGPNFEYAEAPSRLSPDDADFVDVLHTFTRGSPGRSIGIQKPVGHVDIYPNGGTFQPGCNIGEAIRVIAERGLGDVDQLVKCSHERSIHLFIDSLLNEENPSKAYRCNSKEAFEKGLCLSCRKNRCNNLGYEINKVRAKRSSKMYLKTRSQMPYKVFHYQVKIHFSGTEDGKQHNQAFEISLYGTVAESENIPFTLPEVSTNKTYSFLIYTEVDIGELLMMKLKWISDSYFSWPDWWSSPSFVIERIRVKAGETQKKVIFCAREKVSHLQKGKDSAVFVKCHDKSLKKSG
From the text: (§2) Lipogenesis is perceived as the storage of triglycerides in adipocytes. The inhibition of this storage can take place by means of the inhibition of the activity of extracellular lipoprotein lipase (LPL) in that the hydrolysis of extracellular triglycerides and therefore the absorption of free fatty acids by adipocytes are reduced. As a preliminary test, the inhibition of pancreatic lipase (PL) is investigated.
The results of the inhibition of the PL are used as a preliminary test and are confirmed on LPL. To obtain LPL, 3T3-L1 cells (mouse embryonic fibroblast-like adipocyte cell line) are seeded in a 6-well plate with collagen I-coating in a concentration of 3×10^5 cells/well. The cultivation and differentiation of the cells takes place analogously to the details in Example 2 (adipogenesis assay). During the differentiation LPL is increasingly expressed. The LPL is present in a membrane-bound state and is released by one hour incubation with heparin solution at 2-8° C. to the supernatant of the cells.
The LPL thus obtained, in the presence of test substances in different use concentrations, has methylumbelliferyl oleate (MUF oleate) added as the substrate. Fluorescent methylumbelliferyl (MUF) is produced by hydrolysis of the MUF oleate by LPL and is quantified. The inhibition of the hydrolysis of the MUF oleate is a measure of the inhibition of the activity of the LPL and therefore the lipogenesis.
[formula] wherein MUF test substance=MUF concentration of the wells with test substance and with LPL MUF control=MUF concentration of the wells without test substance, but with LPL MUF control without LPL=MUF concentration of the wells without test substance and without LPL
The IC50 is calculated from the inhibition of the LPL [%] in a series of dilutions of tested samples. This is the concentration at which the activity of the LPL and therefore the lipogenesis is 50% inhibited.

3T3 cells = experiment: ATP assay, inhibition of proliferation; type: cell-based; settings: Mus musculus, NIH3T3, 48 h, non-cytotoxic dilutions, mean values of at least 2 independent tests
Experimental: 3T3 cells (mouse […] fibroblasts) were seeded in 96-well plates. After 24 h cultivation at 37° C. and 5% CO2 in DMEM (Dulbecco's Modified Eagle Medium), cells were treated with test substances for another 48 h. […] ATP content in the cells is measured by
The inhibition of proliferation was calculated by:
[formula] wherein RLU test substance=relative luminescent units of the wells with test substance and with cells RLU control=relative luminescent units of the wells without test substance, but with cells RLU control without cells=relative luminescent units of the wells without test substance and without cells
The IC50 is calculated from the proliferation inhibition [%] in a series of non-cytotoxic dilutions of tested samples. This is the concentration at which the proliferation is 50% inhibited.

pancreatic lipase (PL) = target: T2, pancreatic lipase (PL) (Sus scrofa, UniProt P00591); experiment: Inhibition of PL, MUF oleate hydrolysis; type: biochemical; settings: mean values of at least 2 independent tests
T2 construct: purchased Sigma-Aldrich
T2 sequence (P00591 1-450): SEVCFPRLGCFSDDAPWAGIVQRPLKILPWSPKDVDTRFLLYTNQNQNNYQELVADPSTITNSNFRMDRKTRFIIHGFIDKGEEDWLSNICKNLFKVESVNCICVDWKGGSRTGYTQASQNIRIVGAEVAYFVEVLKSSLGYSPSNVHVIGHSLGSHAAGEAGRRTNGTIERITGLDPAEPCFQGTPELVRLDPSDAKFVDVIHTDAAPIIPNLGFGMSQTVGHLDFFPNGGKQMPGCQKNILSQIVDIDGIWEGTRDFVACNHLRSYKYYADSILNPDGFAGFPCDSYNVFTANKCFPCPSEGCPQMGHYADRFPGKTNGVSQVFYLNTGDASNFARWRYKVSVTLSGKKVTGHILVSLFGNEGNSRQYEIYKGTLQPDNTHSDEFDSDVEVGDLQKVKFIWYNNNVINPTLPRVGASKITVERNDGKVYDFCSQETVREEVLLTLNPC
From the text: as §2
PL (Sigma-Aldrich), in the presence of test substances in different use concentrations has methylumbelliferyl oleate (MUF oleate) added as a substrate. Fluorescent methylumelliferon (MUF), is produced by hydrolysis of the MUF oleate by PL and is quantified. The inhibition of the hydrolysis of the MUF oleate is a measure of the inhibition of activity of the PL.
[formula] wherein MUF test substance=MUF concentration of the wells with test substance and with PL MUF control=MUF concentration of the wells without test substance, but with PL MUF control without PL=MUF concentration of the wells without test substance and without PL
The IC50 is calculated from the inhibition of the PL [%] in a series of dilutions of tested samples. This is the concentration, at which the activity of the PL is 50% inhibited.

3T3-L1 cells [2] = experiment: Adipogenesis assay (in vitro), Nile Red lipid staining; type: cell-based; settings: Mus musculus, mean values of at least 2 independent tests, read-out: Adipogenesis inhibition IC50
Experimental: 3T3-L1 cells (mouse embryonic fibroblast-like adipocyte cell line) are seeded in a 48-well plate with collagen I-coating in a concentration of 3×10^4 cells/well. After 72 h cultivation at 37° C. and 5% CO2 in DMEM (Dulbecco's Modified Eagle Medium), enriched with 10% calf serum, various concentrations of the test substances in DMEM, enriched with 10% foetal calf serum and to which are added 1 μg/ml insulin, 0.25 μM dexamethasone and 0.5 mM IBMX (3-isobutyl-1-methylxanthine), are added and incubated for a further 48 h. A media change takes place, in that DMEM, enriched with 10% foetal calf serum and with 1 μg/ml insulin added, are applied. After renewed cultivation for 48 h, a further media change takes place, in which DMEM, enriched with 10% foetal calf serum, is applied.
After a further incubation for 72 h, the intracellularly stored lipids are quantified as a measure for the differentiation of the cells by measuring the fluorescence after staining of the lipids with the fluorescent dye Nile Red.
The inhibition of the adipogenesis in the presence of the test substances is calculated according to the following equation:
[formula] wherein RFU test substance=relative fluorescent units of the wells with test substance and with cells RFU control=relative fluorescent units of the wells without test substance, but with cells RFU control without cells=relative fluorescent units of the wells without test substance and without cells The IC50 is calculated from the adipogenesis inhibition [%] in a series of dilutions of tested samples. This is the concentration at which the adipogenesis is 50% inhibited.

[3] = system: ex vivo pig skin model including subcutis fat layer; experiment: Lipolysis assay, ex vivo pig skin model, free glycerol release; type: cell-based; settings: conc. 0.1% in cosmetic test preparation, topical on ex vivo pig skin, 24 hours, versus placebo
From the text: Full thickness pig skin patches (pig skin model including subcutis fat layer as described in EP 1 939 279) are excised from the dorsal part of young pig slaughtered for meat. The ex vivo pig skin models have a size of 7×3 mm (diameter×height). They are placed on a titanium grid dipped in culture medium. On top of the skin samples formulations are applied. In parallel to a cosmetic test preparation containing one or more compounds of formula (I) a placebo preparation without any compound of formula (I) is applied as reference (blank).
After 24 hours of incubation, the quantification of free glycerol in the medium surrounding the pig skin models was performed. The glycerol is released by the cells after hydrolysis of triglycerides in the cells of the adipose tissue and is a measure of the lipolysis of the pig skin models. The quantification of the free glycerol is carried out based on an enzymatic method with a free glycerol reagent.
Cosmetic Test Preparation:
Phases A and B are heated to 70° C. separately. Pemulen TR1 as well as Ultrez-21 are dispersed in phase B when heated to 70° C. Phase B/C is added to phase A by mixing with an Ultra Turrax, followed by emulsifying. Phase D is slowly added to phase A/B/C using a paddle mixer and a pH 5.5-6 is adjusted. The formulation is cooled down while mixing with a paddle mixer. Phase E is prepared by dissolving one or more compounds of formula (I) in Hydrolite-5. Subsequently, phase E is added to the mixture of phase A-D.
as §1
[formula] wherein A test substance=absorption of the wells with medium of ex vivo skin models, on which the formulation containing the test substance was applied A placebo=absorption of the wells with medium of ex vivo skin models, on which the placebo without test substance was applied

IC50 (lipoprotein lipase (LPL)) [µM]	IC50 (pancreatic lipase (PL)) [µM]	Structure (SMILES)	EC50 (3T3-L1 cells [1]) [µM]	IC50 (3T3 cells) [µM]	IC50 (3T3-L1 cells [2]) [µM]	Stimulation of lipolysis [3] [%]
1020	900	CCCCNC(=O)OC1CC(C)CC(C)(C)C1 (centres unmarked) [BIO1616, Butyl-carbamic acid 3,3,5-trimethyl-cyclohexyl ester]	450	220	120	–
720	350	CCC(C)NC(=O)OC1CC(C)CC(C)(C)C1 (centres unmarked) [BIO1844, sec-Butyl-carbamic acid 3,3,5-trimethyl-cyclohexyl ester]	210	478	89	–
–	–	CCc1ccc(NC(=O)OC2CC(C)CC(C)C2)cc1 (centres unmarked) [BIO1823, (4-Ethyl-phenyl)-carbamic acid 3,5-dimethyl-cyclohexyl ester]	460	1390	62	28
